According to article PMC10145651, “Modulation of the 5-Lipoxygenase Pathway by Chalcogen-Containing Inhibitors of Leukotriene A4 Hydrolase” (International Journal of Molecular Sciences, 2023):
Entries after “also recorded” stand apart in the source; their conditions may differ. Read-outs that look alike come from different tables or passages of the source.

Assays:
[1] = tested on: peripheral blood-derived monocytes; assay: MTT cytotoxicity assay with monocytes; type: cell-based, human; conditions: lower concentrations (less than 30 µM); MTT and LDH assays, Figure S3
Method: Human primary leukocytes were isolated from peripheral blood of healthy adult volunteers provided by the Institute of Transfusion Medicine at the University Hospital Greifswald as described before. All methods were performed in accordance with the Declaration of Helsinki. […] The remaining erythrocytes were removed by hypotonic lysis using water, and resulting polymorphonuclear neutrophils (PMNs) were resuspended in PBS containing 0.1% (w/v) glucose (PG buffer) or PG buffer with 1 mM CaCl2 (PGC buffer) as indicated.
Then, cells were incubated with 5 mg/mL MTT in PBS until the blue staining of the vehicle-containing control cells. Formazan formation was stopped by 100 µL of 10% (w/v in 20 mM HCl) SDS lysis buffer and followed by shaking overnight. Finally, absorbance was measured at 570 nm with a SpectraMax® i3x multi-mode detection platform (Molecular Devices, San Jose, CA, USA). The pan-protein kinase inhibitor staurosporine (1 µM) was used as a cytotoxic control inhibitor.

5-LOX = biological target: T1, 5-LOX (Homo sapiens, UniProt P09917); assay: 5-LOX product formation from intact PMNs: 5S-HETE (cellular activity of 5-LOX); type: cell-based; design: stimulated intact polymorphonuclear neutrophils (PMNs); endogenous in cells; host or cells: human primary polymorphonuclear neutrophils (PMNs) from peripheral blood; conditions: for inhibitory effect on the 5-LOX activity (5S-HETE) in PMNs with exogenous AA: 0.5 µM inhibitor, 0–20 µM AA
T1 sequence (P09917 1-674): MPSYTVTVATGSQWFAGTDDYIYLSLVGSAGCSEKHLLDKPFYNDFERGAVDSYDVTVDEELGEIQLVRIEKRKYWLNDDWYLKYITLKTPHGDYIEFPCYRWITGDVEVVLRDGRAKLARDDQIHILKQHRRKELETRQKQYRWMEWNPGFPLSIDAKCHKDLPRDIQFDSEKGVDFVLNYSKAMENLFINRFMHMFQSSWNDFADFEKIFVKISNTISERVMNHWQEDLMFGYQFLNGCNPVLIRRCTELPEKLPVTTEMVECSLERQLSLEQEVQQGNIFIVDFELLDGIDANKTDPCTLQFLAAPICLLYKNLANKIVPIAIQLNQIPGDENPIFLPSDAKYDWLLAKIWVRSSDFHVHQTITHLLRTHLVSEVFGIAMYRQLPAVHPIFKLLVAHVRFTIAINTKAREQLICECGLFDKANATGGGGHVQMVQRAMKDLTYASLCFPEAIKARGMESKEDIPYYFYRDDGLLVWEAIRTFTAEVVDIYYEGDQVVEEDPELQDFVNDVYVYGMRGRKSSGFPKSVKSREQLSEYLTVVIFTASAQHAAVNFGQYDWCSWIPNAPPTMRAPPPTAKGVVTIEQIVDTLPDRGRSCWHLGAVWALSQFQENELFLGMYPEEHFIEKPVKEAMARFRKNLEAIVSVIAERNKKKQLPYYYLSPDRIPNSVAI
Method: Human primary leukocytes were isolated from peripheral blood of healthy adult volunteers provided by the Institute of Transfusion Medicine at the University Hospital Greifswald as described before. All methods were performed in accordance with the Declaration of Helsinki. In brief, erythrocytes were removed by dextran sedimentation and leukocytes were separated by the density gradient centrifugation on a lymphocyte separation medium (Histopaque®-1077, Merck, Darmstadt, Germany). The remaining erythrocytes were removed by hypotonic lysis using water, and resulting polymorphonuclear neutrophils (PMNs) were resuspended in PBS containing 0.1% (w/v) glucose (PG buffer) or PG buffer with 1 mM CaCl2 (PGC buffer) as indicated. Resulting peripheral blood mononuclear cells (PBMC), including monocytes, were seeded in the RPMI 1640 medium supplemented with 10% (v/v) FCS, 100 U/mL penicillin, 100 µg/mL streptomycin and 2 mM L-glutamine in cell culture flasks (Greiner Bio-one, Frickenhausen, Germany) for 1.5 h at 37 °C and 5% CO2. Adherent monocytes were washed twice with PBS and were finally resuspended in the RPMI 1640 medium as described before.
PMNs (5 × 10^6 cells/mL) were diluted in PGC buffer and pre-incubated with the vehicle (0.1%; v/v) or compounds for 10 min at 37 °C prior to the stimulation with 2.5 µM A23187. After 10 min at 37 °C, treatments were stopped on ice with an equal volume of ice-cold methanol. Next, 530 µL acidified PBS containing 200 ng PGB1 as an internal standard were added to the sample followed by the solid phase extraction with on a RP18 column. […] Formed 5-LOX metabolites were analyzed as described previously.

[2] = biological target: T2, recombinant soluble epoxide hydrolase (sEH) (Homo sapiens, UniProt P34913); assay: Inhibition assay with soluble epoxide hydrolase (PHOME); type: biochemical; conditions: for effect on the activity of recombinant soluble epoxide hydrolase (sEH): 50 μM PHOME
T2 construct: made in house
T2 sequence (P34913 1-555): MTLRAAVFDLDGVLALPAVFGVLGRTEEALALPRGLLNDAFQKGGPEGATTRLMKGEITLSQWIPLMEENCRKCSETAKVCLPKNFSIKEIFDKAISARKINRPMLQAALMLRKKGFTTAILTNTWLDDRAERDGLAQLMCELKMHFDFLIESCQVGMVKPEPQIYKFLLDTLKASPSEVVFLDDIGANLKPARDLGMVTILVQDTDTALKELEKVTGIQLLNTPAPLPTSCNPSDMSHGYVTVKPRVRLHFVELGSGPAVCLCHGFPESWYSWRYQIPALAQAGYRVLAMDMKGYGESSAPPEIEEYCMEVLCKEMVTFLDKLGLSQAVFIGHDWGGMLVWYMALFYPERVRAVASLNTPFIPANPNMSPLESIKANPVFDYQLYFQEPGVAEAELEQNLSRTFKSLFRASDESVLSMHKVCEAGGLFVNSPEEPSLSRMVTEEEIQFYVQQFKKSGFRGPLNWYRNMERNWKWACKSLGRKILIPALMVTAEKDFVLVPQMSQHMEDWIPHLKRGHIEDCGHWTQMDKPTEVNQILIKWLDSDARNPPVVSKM
Method: The human recombinant soluble epoxide hydrolase (sEH) was expressed and purified as described before.
Pre-incubation with 0.5 µg/mL of sEH and test compounds or 0.1% (v/v) vehicle was performed in 25 mM Tris-HCl buffer (pH 7.0) containing 0.1 mg/mL bovine serum albumin at room temperature for 10 min. Reaction was initiated with 50 μM PHOME, a non-fluorescent compound that is enzymatically converted into fluorescent 6-methoxy-naphtaldehyde, at room temperature for 60 min. Reactions were stopped with 200 mM ZnSO4 and fluorescence signals were recorded at 330 nm/465 nm (ex/em). If required, a possible fluorescence of test compounds was subtracted from the read-out.

[3] = A23187-activated intact PMNs, 5S-HETE formation, read-out: IC50 on the 5-LOX activity (5S-HETE) in PMNs

Row | Structure (SMILES) | safety in human leukocytes (cytotoxicity assays) [1] | IC50 (5-LOX; [3]) [nM] | effect on the activity of recombinant soluble epoxide hydrolase (sEH) [2] | inhibitory effect on the 5-LOX activity (5S-HETE) in PMNs with exogenous AA (5-LOX) | effect on the activity of soluble epoxide hydrolase (sEH) at 10 µM ([2]; 10 µM inhibitor) | IC50 (5-LOX) [nM]
1 | Nc1nc(-c2ccc(Cc3ccccc3)cc2)cs1 [ARM1, 4-(4-benzylphenyl) thiazol-2-amine, reference compound] | safe | 1700 | did not have any effect; also recorded: do not affect | – | – | –
2 | Nc1nc(-c2ccc(Cc3ccccc3)cc2)co1 [TTO, 4-(4-benzylphenyl) oxazol-2-amine] | safe | 2300 | at higher concentrations may affect | did not have any inhibitory effects | attenuated | –
3 | Nc1nc(-c2ccc(Cc3ccccc3)cc2)c[se]1 [TTSe, 4-(4-benzylphenyl) selenazol-2-amine] | safe | – | did not have any effect; also recorded: do not affect | did not have any inhibitory effects | – | 2300
